{
  "source": "patent US20240246931A1",
  "about": "“COMPOUNDS AS PD1/PD-L1 INHIBITORS AND METHODS THEREOF” (JUBILANT PRODEL LLC, priority 2021, published 2024)",
  "key": {"PD-1/PD-L1 interaction": {"biological_target": "T1, PD-1/PD-L1 interaction (Homo sapiens, UniProt Q9NZQ7)", "T1 construct": "purchased CisBio 63ADK000CPAPEG", "T1 sequence (Q9NZQ7 19-238 limits assumed)": "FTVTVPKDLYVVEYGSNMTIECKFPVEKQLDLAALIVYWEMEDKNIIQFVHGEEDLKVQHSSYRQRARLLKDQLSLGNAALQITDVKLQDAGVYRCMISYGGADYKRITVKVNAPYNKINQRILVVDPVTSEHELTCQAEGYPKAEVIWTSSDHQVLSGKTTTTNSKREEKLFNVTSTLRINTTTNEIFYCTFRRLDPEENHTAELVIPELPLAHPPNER", "experiment": "PD-1/PD-L1 HTRF binding assay (CisBio kit)", "details": "HTRF PD1/PD-L1 inhibition assay", "protocol": "PD-L1 Enzyme Assay: Homogenous Time-Resolved Fluorescence (HTRF) Binding Assay\nAll binding studies were performed using PD-1/PD-L1 Binding Assay Kit from CisBio (Catalog #63ADK000CPAPEG), according to the manufacturer's protocol. The interaction between Tag1-PD-1 and […] was detected by anti-Tag1-Eu^3+ (HTRF donor) and anti-Tag2-XL665 (HTRF acceptor). When the donor and acceptor antibodies were brought to close proximity due to PD-1 and PD-L1 binding, excitation of the donor antibody triggered fluorescent resonance energy transfer (FRET) towards the acceptor antibody, which in turn emitted specifically at 665 nm. This specific signal is positively proportional to PD-1/PD-L1 interaction. The compounds blocking PD-1/PD-L1 interaction will cause a reduction in HTRF signal. The necessary reagents were mixed in the following order: 2 μL compounds (or diluents buffer), 4 μL PD-L1 protein, 4 μL PD-1 protein. After an incubation of 15 minutes, 5 μL of anti-Tag1-Eu^3+ and 5 μL of anti-Tag2-XL665 were added. The plate was sealed and incubated at room temperature for 1 h. The fluorescence emission was read at two different wavelengths (665 nm and 620 nm) on a BMG PheraStar® multi-plate reader.\nResults were calculated from the 665 nm and 620 nm fluorescence signal and expressed in HTRF ratio=(665 nm/620 nm)×10^4.\nCompounds having IC50<100 nM are designated as “A”; 100-500 nM are designated as “B”; and >500 nM are designated as “C” respectively."}, "[1]": {"experiment": "Metabolic stability in mouse liver microsomes", "assay_type": "in vitro ADME", "details": "mouse liver microsomes 1.0 mg/mL, compound 1 μM, NADPH, second number of HLM/MLM cell", "source_text": "(§1) Metabolic Stability in Liver Microsomes\n(§2) The purpose of this experiment is to measure the metabolic half-life of NCEs in sub-cellular fractions such as human liver microsomes (HLM) or mouse liver microsomes (MLM). This provides an in vitro means to calculate intrinsic hepatic clearance, and to support the prediction of human pharmacokinetics. This approach has been successfully utilized at early phase of drug discovery projects, to provide SAR input for reducing metabolic instability and for predicting in vivo hepatic clearance.\n(§3) Procedure: Potassium phosphate buffer (66.7 mM, pH 7.4) containing liver microsomes (mouse and human) (1.0 mg/mL) was pre-incubated separately with compound (1 μM) and positive control (verapamil, 1 μM) in a 37° C. water bath for 5 min. The reactions were initiated by adding 20 μL of 10 mM NADPH. Reactions without NADPH (0 and 30 min) were also incubated to rule out non-NADPH metabolism or chemical instability in the incubation buffer. All reactions were terminated using 200 μL of ice-cold acetonitrile containing internal standard at 0, 5, 15 and 30 min. The vials were centrifuged at 3000 rpm for 15 min. The supernatants thus obtained were analyzed on LC-MS/MS to monitor the disappearance of test compound."}, "[2]": {"experiment": "Metabolic stability in human liver microsomes", "assay_type": "in vitro ADME", "details": "human liver microsomes 1.0 mg/mL, compound 1 μM, NADPH, first number of HLM/MLM cell", "source_text": "as §1, §2, §3"}},
  "note": "Where a name gives a salt, the structure may show the parent alone.",
  "data": [
    {"smiles": "Cc1c(COc2cc(OCc3cncc(C#N)c3)c(CN3CC4(CC4)C[C@H]3CO)c3c2CCC3)cccc1-c1ccccc1", "note": "[Example 25, (S)-5-(((4-((6-(hydroxymethyl)-5-azaspiro[2.4]heptan-5-yl)methyl)-7-((2-methyl-[1,1′-biphenyl]-3-yl)methoxy)-2,3-dihydro-1H-inden-5-yl)oxy)methyl)nicotinonitrile]", "values": [
      {"measurement": "IC50", "setting": "PD-1/PD-L1 interaction", "value": "< 100", "unit": "nM"},
      {"measurement": "MLM % remaining @ 30 min", "setting": "[1]", "value": 61, "unit": "%"},
      {"measurement": "HLM % remaining @ 30 min", "setting": "[2]", "value": 45, "unit": "%"}
    ]},
    {"smiles": "Cc1c(COc2cc(OCc3cccc(C(N)=O)c3)c(CN3CCC[C@H]3CO)c3c2CCC3)cccc1-c1ccccc1", "note": "[Example 38, (S)-3-(((4-((2-(hydroxymethyl)pyrrolidin-1-yl)methyl)-7-((2-methyl-[1,1′-biphenyl]-3-yl)methoxy)-2,3-dihydro-1H-inden-5-yl)oxy)methyl)benzamide]", "values": [
      {"measurement": "IC50", "setting": "PD-1/PD-L1 interaction", "value": "< 100", "unit": "nM"},
      {"measurement": "MLM % remaining @ 30 min", "setting": "[1]", "value": 84, "unit": "%"},
      {"measurement": "HLM % remaining @ 30 min", "setting": "[2]", "value": 78, "unit": "%"}
    ]},
    {"smiles": "Cc1c(COc2cc(OCc3cncc(C#N)c3)c(CN3CCC3CO)c3c2CCC3)cccc1-c1ccccc1", "note": "(stereo not shown) [Example 10, 5-(((4-((2-(hydroxymethyl)azetidin-1-yl)methyl)-7-((2-methyl-[1,1′-biphenyl]-3-yl)methoxy)-2,3-dihydro-1H-inden-5-yl)oxy)methyl)nicotinonitrile]", "values": [
      {"measurement": "IC50", "setting": "PD-1/PD-L1 interaction", "value": "< 100", "unit": "nM"},
      {"measurement": "MLM % remaining @ 30 min", "setting": "[1]", "value": 70, "unit": "%"},
      {"measurement": "HLM % remaining @ 30 min", "setting": "[2]", "value": 69, "unit": "%"}
    ]},
    {"smiles": "Cc1c(COc2cc(OCc3cncc(C#N)c3)c(CN3CC4(CCC3CO)CC4)c3c2CCC3)cccc1-c1ccccc1", "note": "(stereo not shown) [Example 11, 5-(((4-((6-(hydroxymethyl)-5-azaspiro[2.5]octan-5-yl)methyl)-7-((2-methyl-[1,1′-biphenyl]-3-yl)methoxy)-2,3-dihydro-1H-inden-5-yl)oxy)methyl)nicotinonitrile]", "values": [
      {"measurement": "IC50", "setting": "PD-1/PD-L1 interaction", "value": "< 100", "unit": "nM"},
      {"measurement": "MLM % remaining @ 30 min", "setting": "[1]", "value": 11, "unit": "%"},
      {"measurement": "HLM % remaining @ 30 min", "setting": "[2]", "value": 21, "unit": "%"}
    ]},
    {"smiles": "N#Cc1cncc(COc2cc(OCc3cccc(-c4ccccc4)c3C#N)c3c(c2CN2CCCC[C@H]2CO)CCC3)c1", "note": "[Example 5, (S)-5-(((7-((2-cyano-[1,1′-biphenyl]-3-yl)methoxy)-4-((2-(hydroxymethyl)piperidin-1-yl)methyl)-2,3-dihydro-1H-inden-5-yl)oxy)methyl)nicotinonitrile]", "values": [
      {"measurement": "IC50", "setting": "PD-1/PD-L1 interaction", "value": "< 100", "unit": "nM"},
      {"measurement": "MLM % remaining @ 30 min", "setting": "[1]", "value": 13, "unit": "%"},
      {"measurement": "HLM % remaining @ 30 min", "setting": "[2]", "value": 16, "unit": "%"}
    ]},
    {"smiles": "Cc1c(COc2cc(OCCF)c(CN3CCC[C@H]3CO)c3c2CCC3)cccc1-c1ccccc1", "note": "[Example 28, (S)-(1-((5-(2-fluoroethoxy)-7-((2-methyl-[1,1′-biphenyl]-3-yl)methoxy)-2,3-dihydro-1H-inden-4-yl)methyl)pyrrolidin-2-yl)methanol]", "values": [
      {"measurement": "IC50", "setting": "PD-1/PD-L1 interaction", "value": "< 100", "unit": "nM"},
      {"measurement": "MLM % remaining @ 30 min", "setting": "[1]", "value": 82, "unit": "%"},
      {"measurement": "HLM % remaining @ 30 min", "setting": "[2]", "value": 74, "unit": "%"}
    ]},
    {"smiles": "Cc1c(COc2cc(OCc3cncc(C#N)c3)c(CN3CCC3CO)c3c2CCC3)cccc1-c1cccnc1", "note": "(stereo not shown) [Example 71, 5-(((4-((2-(hydroxymethyl)azetidin-1-yl)methyl)-7-((2-methyl-3-(pyridin-3-yl)benzyl)oxy)-2,3-dihydro-1H-inden-5-yl)oxy)methyl)nicotinonitrile]", "values": [
      {"measurement": "IC50", "setting": "PD-1/PD-L1 interaction", "value": "100 to 500", "unit": "nM"}
    ]},
    {"smiles": "Cc1c(COc2cc(OCc3cncc(C#N)c3)c(CN3CCC3CO)c3c2CCC3)cccc1-c1ccc(C(C)(C)C)cc1", "note": "(stereo not shown) [Example 75, 5-(((7-((4′-(tert-butyl)-2-methyl-[1,1′-biphenyl]-3-yl)methoxy)-4-((2-(hydroxymethyl)azetidin-1-yl)methyl)-2,3-dihydro-1H-inden-5-yl)oxy)methyl)nicotinonitrile]", "values": [
      {"measurement": "IC50", "setting": "PD-1/PD-L1 interaction", "value": "> 500", "unit": "nM"}
    ]},
    {"smiles": "CNC(=O)NCC1CCCN1Cc1c(OCc2cncc(C#N)c2)cc(OCc2cccc(-c3ccccc3)c2C)c2c1CCC2", "note": "(stereo not shown) [Example 80, 1-((1-((5-((5-cyanopyridin-3-yl)methoxy)-7-((2-methyl-[1,1′-biphenyl]-3-yl)methoxy)-2,3-dihydro-1H-inden-4-yl)methyl)pyrrolidin-2-yl)methyl)-3-methylurea formate]", "values": [
      {"measurement": "IC50", "setting": "PD-1/PD-L1 interaction", "value": "< 100", "unit": "nM"}
    ]},
    {"smiles": "Cc1c(COc2cc(OCc3cncnc3)c(CN3CCC3CO)c3c2CCC3)cccc1-c1ccccc1", "note": "(stereo not shown) [Example 42, (1-((7-((2-methyl-[1,1′-biphenyl]-3-yl)methoxy)-5-(pyrimidin-5-ylmethoxy)-2,3-dihydro-1H-inden-4-yl)methyl)azetidin-2-yl)methanol]", "values": [
      {"measurement": "IC50", "setting": "PD-1/PD-L1 interaction", "value": "< 100", "unit": "nM"}
    ]}
  ]
}
